From patent US9763445B2, “Safened herbicidal compositions comprising a pyridine carboxylic acid herbicide” (Dow AgroSciences, LLC, priority 2014, dated 2017)

Columns and labels:
velvetleaf (ABUTH) = assay: Postemergence greenhouse trial, % visual injury on velvetleaf; type: in vivo, Abutilon theophrasti; conditions: alone, 35 g/ha
Experimental: (§1) Seeds of the desired test plant species were planted in Sun Gro MetroMix® 306 planting mixture, which typically has a pH of 6.0 to 6.8 and an organic matter content of about 30 percent, in plastic pots with a surface area of 103.2 square centimeters (cm^2). When required to ensure good germination and healthy plants, a fungicide treatment and/or other chemical or physical treatment was applied. The plants were grown for 7-36 days (d) in a greenhouse with an approximate 14-hour (h) photoperiod which was maintained at about 23° C. during the day and 22° C. during the night. Nutrients and water were added on a regular basis and supplemental lighting was provided with overhead metal halide 1000-Watt lamps as necessary. The plants were employed for testing when they reached the second or third true leaf stage.
(§2) Weighed amounts of technical material were dissolved in a volume of 97:3 volume per volume (v/v) acetone/dimethyl sulfoxide (DMSO) to stock solutions. […] The concentrated stock solutions were diluted with an aqueous mixture of 1.5% v/v of Agri-dex crop oil concentrate to provide the appropriate application rates. Compound requirements are based upon a 12 milliliter (mL) application volume at a rate of 187 liters per hectare (L/ha). Stocks solutions of the safeners were prepared following the same procedure. Spray solutions of the safeners and experimental compound mixtures were prepared by adding the stock solutions to the appropriate amount of dilution solution to form a 12 mL spray solution in two-way combinations. Formulated compounds were applied to the plant material with an overhead Mandel track sprayer equipped with 8002E nozzles calibrated to deliver 187 L/ha over an application area of 0.503 square meters (m^2) at a spray height of 18 inches (43 centimeters (cm)) above average plant canopy. Control plants were sprayed in the same manner with the solvent blank. All herbicide application (component a) rates are in g ae/ha and all safener (component b) rates are in g ai/ha.
(§3) The treated plants and control plants were placed in a greenhouse as described above and watered by sub-irrigation to prevent wash-off of the test compounds. After 20-22 d, the condition of the test plants as compared with that of the control plants was determined visually and scored on a scale of 0 to 100 percent where 0 corresponds to no injury and 100 corresponds to complete kill. The condition of the test plants was compared with that of the control plants as determined visually and scored on a scale of 0 to 100 percent, where 0 corresponds to no injury and 100 corresponds to complete kill. Colby's equation was used to determine the herbicidal effects expected from the mixtures.
(§4) The safener cloquintocet-mexyl was combined with compound 1, compound 2, compound 4, compound 5, and compound 6, and applied to corn/maize (ZEAMX) and spring wheat (TRZAS) and the phytotoxicity of the herbicidal compositions was measured. In addition, the efficacy of the herbicidal composition on velvetleaf (ABUTH, Abutilon theophrasti), pigweed (AMARE, Amaranthus retroflexus), winter rape (BRSNW, Brassica napus), lambsquarters (CHEAL, Chenopodium album), thistle (CIRAR, Cirsium arvense), nutsedge (CYPES, Cyperus esculentus), poinsettia (EPHHL, Euphorbia heterophylla), wild buckwheat (POLCO, Polygonum convolvulus), giant foxtail (SETFA, Setaria faberi), and chickweed (STEME, Stellaria media) was evaluated.
(§5) The safener cloquintocet-mexyl was combined with compound 1, compound 2, compound 3, compound 7, compound 8, compound 9, compound 10, compound 11, compound 12, compound 13, compound 14, compound 15, compound 16, compound 17, compound 18, compound 19, and compound 20, and applied to spring wheat (TRZAS), winter wheat (TRZAW), and spring barley (HORVS) and the phytotoxicity of the herbicidal compositions was measured. […]

chickweed (STEME) = assay: Postemergence greenhouse trial, % visual injury on chickweed; type: in vivo, Stellaria media; conditions: alone, 35 g/ha
Experimental: as §1, §2, §3
as §4, with “evaluated. […]” for “evaluated.”

corn/maize (ZEAMX) = assay: Postemergence greenhouse trial, % visual injury on corn/maize; type: in vivo, Zea mays; conditions: alone, 35 g/ha
Experimental: as §1, §2, §3
as §4, with “evaluated. […]” for “evaluated.”

thistle (CIRAR) = assay: Postemergence greenhouse trial, % visual injury on thistle; type: in vivo, Cirsium arvense; conditions: Cirsium arvense, post-emergence; alone, 35 g/ha; read-out: % visual injury, Ob
Experimental: as §1, §2, §3
as §4, with “evaluated. […]” for “evaluated.”

common sorghum (SORVU) = assay: Postemergence greenhouse trial, % visual injury on common sorghum; type: in vivo, Sorghum vulgare; conditions: alone, 35 g/ha
Experimental: as §1, §2
as §3, with “mixtures. […]” for “mixtures.”
The safener cloquintocet-acid and a number of agriculturally acceptable esters and salts (-mexyl, -dimethylammonium salt and -triethylammonium salt) were combined in varying ratios with compound 1 and applied to spring wheat (TRZAS), winter wheat (TRZAW), and spring barley (HORVS), and the phytotoxicity of the herbicidal compositions was measured. In addition, the efficacy of the herbicidal composition on pigweed (AMARE, Amaranthus retroflexus), nutsedge (CYPES, Cyperus esculentus), common sunflower (HELAN, Helianthus annuus), and common sorghum (SORVU, Sorghum vulgare).

pigweed (AMARE) = assay: Postemergence greenhouse trial, % visual injury on pigweed; type: in vivo, Amaranthus retroflexus; conditions: Amaranthus retroflexus, post-emergence; alone, 35 g/ha; read-out: % visual injury, Ob
Experimental: as §1, §2, §3
as §4, with “evaluated. […]” for “evaluated.”
(§6) The safener cloquintocet-acid and a number of agriculturally acceptable esters and salts (-mexyl, -dimethylammonium salt and -triethylammonium salt) were combined in varying ratios with compound 1 and applied to spring wheat (TRZAS), winter wheat (TRZAW), and spring barley (HORVS), and the phytotoxicity of the herbicidal compositions was measured. […]

spring wheat (TRZAS) = assay: Postemergence greenhouse trial, % visual injury on spring wheat; type: in vivo, Triticum aestivum; conditions: alone, 35 g/ha
Experimental: as §1, §2, §3, §4, §5

winter rape (BRSNW) = assay: Postemergence greenhouse trial, % visual injury on winter rape; type: in vivo, Brassica napus; conditions: Brassica napus, post-emergence; alone, 35 g/ha; read-out: % visual injury, Ob
Experimental: as §1, §2, §3
as §4, with “evaluated. […]” for “evaluated.”

wild buckwheat (POLCO) = assay: Postemergence greenhouse trial, % visual injury on wild buckwheat; type: in vivo, Polygonum convolvulus; conditions: alone, 35 g/ha
Experimental: as §1, §2, §3, §4, §5

nutsedge (CYPES) = assay: Postemergence greenhouse trial, % visual injury on nutsedge; type: in vivo, Cyperus esculentus; conditions: alone, 35 g/ha
Experimental: as §1, §2, §3
as §4, with “evaluated. […]” for “evaluated.”
as §6

wild pansy (VIOTR) = assay: Postemergence greenhouse trial, % visual injury on wild pansy; type: in vivo, Viola tricolor; conditions: alone, 35 g/ha
Experimental: as §1, §2
as §3, with “mixtures. […]” for “mixtures.”

lambsquarters (CHEAL) = assay: Postemergence greenhouse trial, % visual injury on lambsquarters; type: in vivo, Chenopodium album; conditions: Chenopodium album, post-emergence; alone, 35 g/ha; read-out: % visual injury, Ob
Experimental: as §1, §2, §3, §4, §5

giant foxtail (SETFA) = assay: Postemergence greenhouse trial, % visual injury on giant foxtail; type: in vivo, Setaria faberi; conditions: alone, 35 g/ha
Experimental: as §1
(§7) Weighed amounts of technical material were dissolved in a volume of 97:3 volume per volume (v/v) acetone/dimethyl sulfoxide (DMSO) to stock solutions. […] The concentrated stock solutions were diluted with an aqueous mixture of 1.5% v/v of Agri-dex crop oil concentrate to provide the appropriate application rates. Compound requirements are based upon a 12 milliliter (mL) application volume at a rate of 187 liters per hectare (L/ha). […]
as §3, with “Colby's equation was used to determine the herbicidal effects expected from the mixtures.” left out
The safener cloquintocet-mexyl was combined with compound 1, compound 2, compound 4, compound 5, and compound 6, and applied to corn/maize (ZEAMX) and spring wheat (TRZAS) and the phytotoxicity of the herbicidal compositions was measured. […]

poinsettia (EPHHL) = assay: Postemergence greenhouse trial, % visual injury on poinsettia; type: in vivo, Euphorbia heterophylla; conditions: alone, 35 g/ha
Experimental: as §1
as §7, with “(L/ha). Stocks solutions of the safeners were prepared following the same procedure.” for “(L/ha).”
as §3, with “Colby's equation was used to determine the herbicidal effects expected from the mixtures.” left out
as §4, with “evaluated. […]” for “evaluated.”

Row | SMILES | % visual injury, Ob (velvetleaf (ABUTH)) [%] | % visual injury, Ob (chickweed (STEME)) [%] | % visual injury, Ob (corn/maize (ZEAMX)) [%] | pest or weed control at 35 g/ha (thistle (CIRAR)) [%] | % visual injury, Ob (common sorghum (SORVU)) [%] | pest or weed control at 35 g/ha (pigweed (AMARE)) [%] | % visual injury, Ob (spring wheat (TRZAS)) [%] | plant injury at 35 g/ha (winter rape (BRSNW)) [%] | % visual injury, Ob (wild buckwheat (POLCO)) [%] | % visual injury, Ob (nutsedge (CYPES)) [%] | % visual injury, Ob (wild pansy (VIOTR)) [%] | pest or weed control at 35 g/ha (lambsquarters (CHEAL)) [%] | % visual injury, Ob (giant foxtail (SETFA)) [%] | % visual injury, Ob (poinsettia (EPHHL)) [%]
1 | COC(=O)c1nc(-c2ccc3ccn(C(C)=O)c3c2F)c(F)c(N)c1Cl [compound 3] | 50 | 70 | 0 | 50 | 10 | 95 | 30 | 30 | 97 | 10 | 10 | 85 | 60 | 
2 | COC(=O)c1nc(-c2ccc3ccn(C(=O)C(C)C)c3c2F)c(F)c(N)c1Cl [compound 4] | 80 | 93 | 35 | 75 |  | 100 | 40 | 97 | 100 |  |  | 97 |  | 
3 | COCC(=O)n1ccc2ccc(-c3nc(C(=O)OC)c(Cl)c(N)c3F)c(F)c21 [compound 6] | 80 |  | 25 | 75 |  | 100 | 35 | 75 | 97 | 0 |  | 100 |  | 100
